US4914104A, “Imidazo [1,5-a]pyrimidine derivatives and process for their preparation” (Kyorin Pharmaceutical Co., Ltd., priority 1984, dated 1990)
Converted amounts (≈) assume the structure as drawn.

Columns and labels:
Test in all cases: Antifungal activity, standard agar dilution streak method
Type in all cases: cell-based
[1] = tested on: Candida stellatidea IFO-1398; details: IFO1398, read-out: Minimum inhibitory concentration
Description: (§1) The antifungal activity of the compound of the present invention was assayed by the standard agar dilution streak method against fungi.

[2] = tested on: Candida albicans IFO-1594; details: IFO1594, read-out: Minimum inhibitory concentration
Description: as §1

[3] = tested on: Candida albicans KYF-602; details: KYF602, read-out: Minimum inhibitory concentration
Description: as §1

[4] = tested on: Aspergillus fumigatus MTU-06002; details: MTU06002, read-out: Minimum inhibitory concentration
Description: as §1

[5] = tested on: Trichophyton mentagrophytes MTU-19003; details: MTU19003, read-out: Minimum inhibitory concentration
Description: as §1

[6] = tested on: Candida albicans IFO-1388; details: IFO1388, read-out: Minimum inhibitory concentration
Description: as §1

[7] = tested on: Candida albicans MTU-12124; details: MTU12124, read-out: Minimum inhibitory concentration
Description: as §1

[8] = tested on: Trichophyton mentagrophytes MTU-19005; details: MTU19005, read-out: Minimum inhibitory concentration
Description: as §1

[9] = tested on: Microsporum canis 200100; details: read-out: Minimum inhibitory concentration
Description: as §1

[10] = tested on: Candida albicans 3147; details: read-out: Minimum inhibitory concentration
Description: as §1

Clc1cc(Cl)n2c(-c3cccs3)ncc2n1 [Exp. 1, 2,4-dichloro-6-(2-thienyl)imidazo[1,5-a]pyrimidine]
MIC [1]: 1.56 µg/mL (≈ 5.77 µM) | MIC [2]: 1.56 µg/mL (≈ 5.77 µM) | MIC [3]: 6.25 µg/mL (≈ 23.1 µM) | MIC [4]: 6.25 µg/mL (≈ 23.1 µM) | MIC [5]: 1.56 µg/mL (≈ 5.77 µM) | MIC [6]: 1.56 µg/mL (≈ 5.77 µM) | MIC [7]: 6.25 µg/mL (≈ 23.1 µM) | MIC [8]: 1.56 µg/mL (≈ 5.77 µM) | MIC [9]: 1.56 µg/mL (≈ 5.77 µM) | MIC [10]: 3.13 µg/mL (≈ 11.6 µM)

Clc1cc(Cl)n2c(-c3ccco3)ncc2n1 [Exp. 3]
MIC [1]: 3.13 µg/mL (≈ 12.3 µM) | MIC [2]: 3.13 µg/mL (≈ 12.3 µM) | MIC [3]: 12.5 µg/mL (≈ 49.2 µM) | MIC [4]: 12.5 µg/mL (≈ 49.2 µM) | MIC [5]: 3.13 µg/mL (≈ 12.3 µM) | MIC [6]: 3.13 µg/mL (≈ 12.3 µM) | MIC [7]: 6.25 µg/mL (≈ 24.6 µM) | MIC [8]: 3.13 µg/mL (≈ 12.3 µM) | MIC [9]: 1.56 µg/mL (≈ 6.14 µM) | MIC [10]: 3.13 µg/mL (≈ 12.3 µM)

Clc1cc(Cl)n2c(Cc3cccs3)ncc2n1 [Exp. 4]
MIC [1]: 3.13 µg/mL (≈ 11 µM) | MIC [2]: 3.13 µg/mL (≈ 11 µM) | MIC [3]: 6.25 µg/mL (≈ 22 µM) | MIC [4]: 12.5 µg/mL (≈ 44 µM) | MIC [5]: 1.56 µg/mL (≈ 5.49 µM) | MIC [6]: 6.25 µg/mL (≈ 22 µM) | MIC [7]: 6.25 µg/mL (≈ 22 µM) | MIC [8]: 1.56 µg/mL (≈ 5.49 µM) | MIC [9]: 1.56 µg/mL (≈ 5.49 µM) | MIC [10]: 3.13 µg/mL (≈ 11 µM)

Clc1cc(Cl)n2c(-c3ccsc3)ncc2n1 [Exp. 5]
MIC [1]: 6.25 µg/mL (≈ 23.1 µM) | MIC [2]: 3.13 µg/mL (≈ 11.6 µM) | MIC [3]: 12.5 µg/mL (≈ 46.3 µM) | MIC [4]: 3.13 µg/mL (≈ 11.6 µM) | MIC [5]: 1.56 µg/mL (≈ 5.77 µM) | MIC [6]: 6.25 µg/mL (≈ 23.1 µM) | MIC [7]: 6.25 µg/mL (≈ 23.1 µM) | MIC [8]: 0.78 µg/mL (≈ 2.89 µM) | MIC [9]: 1.56 µg/mL (≈ 5.77 µM) | MIC [10]: 3.13 µg/mL (≈ 11.6 µM)

Clc1cc(Cl)n2c(-c3ccc(Br)s3)ncc2n1 [Exp. 6]
MIC [1]: 0.78 µg/mL (≈ 2.23 µM) | MIC [2]: 3.13 µg/mL (≈ 8.97 µM) | MIC [3]: 3.13 µg/mL (≈ 8.97 µM) | MIC [4]: 3.13 µg/mL (≈ 8.97 µM) | MIC [5]: 1.56 µg/mL (≈ 4.47 µM) | MIC [6]: 0.78 µg/mL (≈ 2.23 µM) | MIC [7]: 0.78 µg/mL (≈ 2.23 µM) | MIC [8]: 0.78 µg/mL (≈ 2.23 µM) | MIC [9]: 0.78 µg/mL (≈ 2.23 µM) | MIC [10]: 0.78 µg/mL (≈ 2.23 µM)

Clc1cc(Cl)n2c(-c3ccc(Cl)s3)ncc2n1 [Exp. 7]
MIC [1]: 0.78 µg/mL (≈ 2.56 µM) | MIC [2]: 0.2 µg/mL (≈ 0.657 µM) | MIC [3]: 0.39 µg/mL (≈ 1.28 µM) | MIC [5]: 0.78 µg/mL (≈ 2.56 µM) | MIC [6]: 0.78 µg/mL (≈ 2.56 µM) | MIC [7]: 1.56 µg/mL (≈ 5.12 µM) | MIC [8]: 0.78 µg/mL (≈ 2.56 µM) | MIC [10]: 0.2 µg/mL (≈ 0.657 µM)

Cc1ccc(-c2ncc3nc(Cl)cc(Cl)n23)s1 [Exp. 8]
MIC [1]: 1.56 µg/mL (≈ 5.49 µM) | MIC [2]: 6.25 µg/mL (≈ 22 µM) | MIC [3]: 6.25 µg/mL (≈ 22 µM) | MIC [5]: 1.56 µg/mL (≈ 5.49 µM) | MIC [6]: 6.25 µg/mL (≈ 22 µM) | MIC [7]: 3.13 µg/mL (≈ 11 µM) | MIC [8]: 1.56 µg/mL (≈ 5.49 µM) | MIC [10]: 1.56 µg/mL (≈ 5.49 µM)

Clc1cc(Cl)n2c(-c3ccccc3)nc(Cl)c2n1 [Exp. 13, 2,4,8-trichloro-6-phenylimidazo[1,5-a]pyrimidine]
MIC [1]: 6.25 µg/mL (≈ 20.9 µM) | MIC [2]: 3.13 µg/mL (≈ 10.5 µM) | MIC [3]: 3.13 µg/mL (≈ 10.5 µM) | MIC [4]: 6.25 µg/mL (≈ 20.9 µM) | MIC [5]: 0.78 µg/mL (≈ 2.61 µM) | MIC [6]: 3.13 µg/mL (≈ 10.5 µM) | MIC [7]: 12.5 µg/mL (≈ 41.9 µM) | MIC [8]: 0.78 µg/mL (≈ 2.61 µM) | MIC [9]: 0.78 µg/mL (≈ 2.61 µM) | MIC [10]: 3.13 µg/mL (≈ 10.5 µM)

Clc1cc(Cl)n2c(-c3ccc(Br)cc3)nc(Cl)c2n1 [Exp. 17]
MIC [1]: 0.39 µg/mL (≈ 1.03 µM) | MIC [2]: 1.56 µg/mL (≈ 4.13 µM) | MIC [3]: 6.25 µg/mL (≈ 16.6 µM) | MIC [5]: 3.13 µg/mL (≈ 8.29 µM) | MIC [6]: 0.78 µg/mL (≈ 2.07 µM) | MIC [7]: 3.13 µg/mL (≈ 8.29 µM) | MIC [8]: 3.13 µg/mL (≈ 8.29 µM) | MIC [10]: 1.56 µg/mL (≈ 4.13 µM)

Clc1ccc(Cc2nc(Cl)c3nc(Cl)cc(Cl)n23)cc1 [compound 18]
MIC [1]: 0.78 µg/mL (≈ 2.25 µM) | MIC [2]: 3.13 µg/mL (≈ 9.02 µM) | MIC [3]: 25 µg/mL (≈ 72 µM) | MIC [5]: 3.13 µg/mL (≈ 9.02 µM) | MIC [6]: 0.2 µg/mL (≈ 0.576 µM) | MIC [7]: 6.25 µg/mL (≈ 18 µM) | MIC [8]: 1.56 µg/mL (≈ 4.5 µM) | MIC [10]: 1.56 µg/mL (≈ 4.5 µM)

Clc1cc(Cl)n2c(C3CCCCC3)nc(Cl)c2n1 [compound 19]
MIC [1]: 1.56 µg/mL (≈ 5.12 µM) | MIC [2]: 1.56 µg/mL (≈ 5.12 µM) | MIC [3]: 1.56 µg/mL (≈ 5.12 µM) | MIC [5]: 3.13 µg/mL (≈ 10.3 µM) | MIC [6]: 0.2 µg/mL (≈ 0.657 µM) | MIC [7]: 1.56 µg/mL (≈ 5.12 µM) | MIC [8]: 1.56 µg/mL (≈ 5.12 µM) | MIC [10]: 0.78 µg/mL (≈ 2.56 µM)
